{"source": "patent US20260183295A1", "about": "“METHODS AND COMPOSITIONS FOR TREATING CANCER” (Onconova Therapeutics, Inc., priority 2022, published 2026)", "key": {"[1]": {"test_system": "Hs578t cells", "experiment": "Wound healing assay (24 Hour Migration Assay)", "type": "cell-based", "settings": "1.0 μM and 10.0 μM", "procedure": "(§1) A cell-free area was created in a confluent monolayer by physical exclusion or by removing the cells from the area through mechanical, thermal or chemical damage. The exposure to the cell-free area induced the cells to migrate into the gap. The rate of gap closure was measured and plotted."}, "[2]": {"test_system": "MDA-MB-231 cells", "experiment": "Wound healing assay (24 Hour Migration Assay)", "type": "cell-based", "settings": "MDA-MB-231, 1.0 μM and 10.0 μM", "procedure": "as §1"}, "[3]": {"test_system": "MDA-MB-468", "experiment": "MTT cell viability, 48 hours", "type": "cell-based", "settings": "Homo sapiens, MDA-MB-468 (TNBC), read-out: 48 h-cell viability decrease", "procedure": "A panel of […] breast cancer cell lines: T-47D, BT-474, MDA-MB-453, MDA-MB-468, HCC-1937, Hs578T, and MDA-MB-231, was treated for 48 hours with 5 μM Compound 1 and the cell viability was measured using the MTT assay. TABLE 6 summarizes the cell lines, and the change in viability after 48 hours of treatment with Compound 1."}, "[4]": {"test_system": "p21", "experiment": "Western blot, MDA-MB-231 cells, 24 hours", "type": "cell-based", "settings": "2.5, 5, 10 μM, versus Comparator 1, 2 and 4"}, "[5]": {"test_system": "Caspase 3/7", "experiment": "Caspase 3/7 Glo assay, MDA-MB-231 cells, 24 hours", "type": "cell-based", "procedure": "To determine how Compound 1 induces cell death, Caspase 3/7 activity was measured using the Caspase 3/7 Glo assay.\nThe effect of zVAD-FMK treatment on Caspase 3/7 activity was assessed."}, "[6]": {"test_system": "MDA-MB-231 cells", "experiment": "Annexin V/PI staining followed by FACS, 24 hours", "type": "cell-based", "procedure": "To determine the effect of the different treatment conditions on cell death, Annexin V/PI staining was performed."}, "[7]": {"test_system": "MDA-MB-231 cells", "experiment": "Annexin V/PI staining with or without bafilomycin A1, 2 days", "type": "cell-based", "settings": "5 μM", "source_text": "The effect was increased with bafilomycin A1 cotreatment."}, "[8]": {"test_system": "PyMT cells", "experiment": "MTT cell viability", "type": "cell-based, mouse", "settings": "24, 48 and 72 hours; Compound 1 2.5, 5, 10 μM; Comparator 1 5 μM"}, "[9]": {"test_system": "PyMT cells", "experiment": "Annexin V/PI staining, apoptotic cells, 48 hours", "type": "cell-based, mouse", "settings": "compared to Comparator 1 (5 μM) and Comparator 3 (1 μM)"}, "[10]": {"biological_target": "T1, NanoLuc-CDK16 Fusion (Homo sapiens, UniProt Q00536)", "T1 construct": "expressed in transfected cells; host or cells: HEK293, transient", "T1 sequence (Q00536 whole entry, the tested form may be a part)": "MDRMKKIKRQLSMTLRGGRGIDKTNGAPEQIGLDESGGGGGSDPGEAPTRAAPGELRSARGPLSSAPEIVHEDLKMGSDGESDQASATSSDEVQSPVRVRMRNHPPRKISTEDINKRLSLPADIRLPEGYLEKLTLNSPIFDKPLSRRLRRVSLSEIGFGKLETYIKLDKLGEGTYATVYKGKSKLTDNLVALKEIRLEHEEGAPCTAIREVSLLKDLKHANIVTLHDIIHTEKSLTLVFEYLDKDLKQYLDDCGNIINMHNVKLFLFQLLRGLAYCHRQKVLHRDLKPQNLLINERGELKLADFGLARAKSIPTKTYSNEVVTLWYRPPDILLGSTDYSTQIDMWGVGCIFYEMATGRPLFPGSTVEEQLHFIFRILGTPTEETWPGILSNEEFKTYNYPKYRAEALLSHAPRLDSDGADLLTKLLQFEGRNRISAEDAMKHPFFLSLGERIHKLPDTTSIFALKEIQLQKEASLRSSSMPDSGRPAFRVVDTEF", "T1 sequence (Q8ND76 whole entry partner, the tested form may be a part)": "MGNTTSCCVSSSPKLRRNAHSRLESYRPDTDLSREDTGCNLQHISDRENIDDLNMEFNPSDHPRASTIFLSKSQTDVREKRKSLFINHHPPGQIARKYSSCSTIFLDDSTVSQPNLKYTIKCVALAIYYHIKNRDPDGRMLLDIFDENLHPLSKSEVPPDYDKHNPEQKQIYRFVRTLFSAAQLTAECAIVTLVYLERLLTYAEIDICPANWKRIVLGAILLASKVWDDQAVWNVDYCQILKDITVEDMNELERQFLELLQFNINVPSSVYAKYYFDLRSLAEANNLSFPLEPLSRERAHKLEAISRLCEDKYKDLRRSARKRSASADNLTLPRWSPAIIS", "experiment": "Cellular NanoBRET assay in HEK293 cells, raw data ratio", "type": "cell-based", "procedure": "HEK293 cells were transfected with 1 ug of NanoLuc-CDK16 Fusion vector and 9 ug of either carrier DNA or cyclin Y DAN. The HEK293 cells transiently expressing the vectors were then seeded into the wells of 384-well plates. The cells were pre-treated with the NanoBRET Tracer K-10 (0.5 uM) and then treated with 3-fold serial dilutions (10 uM-0.5 nM), of Compound 1 or the reference compound APY-69 for 1 hour. The BRET signal was measured on an Envision2104 Multilabel Reader. IC50 value was calculated and IC50 curve was plotted using the GraphPad Prism 4 program based on a sigmoidal dose response equation."}, "[11]": {"biological_target": "T2, NUAK1 (Homo sapiens, UniProt O60285)", "T2 sequence (O60285 1-661)": "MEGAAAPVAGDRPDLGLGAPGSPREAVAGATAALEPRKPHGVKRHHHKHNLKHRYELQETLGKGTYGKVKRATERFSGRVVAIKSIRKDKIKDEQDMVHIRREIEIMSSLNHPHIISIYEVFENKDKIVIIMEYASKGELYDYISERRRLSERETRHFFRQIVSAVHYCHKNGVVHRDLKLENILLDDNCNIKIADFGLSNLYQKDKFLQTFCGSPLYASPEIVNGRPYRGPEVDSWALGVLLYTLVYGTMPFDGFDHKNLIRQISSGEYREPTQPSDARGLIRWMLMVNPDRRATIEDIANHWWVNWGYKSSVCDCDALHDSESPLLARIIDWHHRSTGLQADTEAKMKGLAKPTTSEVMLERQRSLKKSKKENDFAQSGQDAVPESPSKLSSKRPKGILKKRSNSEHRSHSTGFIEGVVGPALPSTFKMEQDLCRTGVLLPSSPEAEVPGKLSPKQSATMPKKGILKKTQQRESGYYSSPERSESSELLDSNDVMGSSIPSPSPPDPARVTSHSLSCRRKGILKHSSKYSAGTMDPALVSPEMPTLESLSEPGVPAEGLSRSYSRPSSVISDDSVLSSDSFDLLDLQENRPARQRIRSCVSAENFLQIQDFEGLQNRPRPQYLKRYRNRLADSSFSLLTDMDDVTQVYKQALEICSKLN", "experiment": "NUAK1 CETSA", "type": "cell-based", "set-up": "endogenous in cells; host or cells: MDA-MB-231 (lysates and intact cells)", "procedure": "Following treatment, cell lysates were thermally treated in a thermal gradient profile across a temperature range. Following the thermal shift, cell lysates were spun by centrifuge to pellet aggregate protein and the supernatant withdrawn. The supernatant was then denatured in buffer and heated to denature, reduce, and alkylate the supernatant proteins. Following heating and cooling to room temperature, cold acetone was added to the supernatant samples and proteins precipitated.\nTNBC MDA-MB-231 cells were grown at 37° C. in 5% CO2 and suspended in warm media and split into 4 equal volumes. […] Cells were incubated and then pelleted. Following pelleting, the cells were washed, resuspended, and heated in a thermal gradient. Following heating, the samples were flash frozen and lysed in lysis buffer, agitated by vortex, and sonicated prior to centrifugation. The supernatant was collected and denaturation buffer added. Cold acetone was then added to the cell samples, and protein collected by centrifugation. […]\nThe intact cell protein samples and lysate protein samples were then digested and labeled for mass spectrometry analysis according to the manufacturer's recommended protocols. Digested and labeled protein samples were analyzed by mass spectrometry proteomic analysis and the resulting protein targets were analyzed and plotted."}}, "data": [{"smiles": "CN1CCN(c2ccc(Nc3ncc4cc(C#N)c(=O)n(C5CCCC5)c4n3)cc2)CC1", "note": "[Compound 1, 8-cyclopentyl-2-((4-(4-methylpiperazin-1-yl)phenyl)amino)-7-oxo-7,8-dihydropyrido[2,3-d]pyrimidine-6-carbonitrile]", "values": [{"measurement": "cell migration (rate of gap closure)", "setting": "[1]", "result": "inhibited cell migration significantly more than Comparator 1"}, {"measurement": "cell migration (rate of gap closure)", "setting": "[2]", "result": "inhibited cell migration significantly more than Comparator 1"}, {"measurement": "cytotoxicity at 5 µM", "setting": "[3]", "result": 65, "unit": "%"}, {"measurement": "p21 levels", "setting": "[4]", "result": "decreasing"}, {"measurement": "Caspase 3/7 activity", "setting": "[5]; Compound 1, Comparator 1, 2 5 μM, Comparator 4 10 μM (FIG. 22)", "result": "modest increase"}, {"measurement": "Caspase 3/7 activity", "setting": "[5]; without zVAD-FMK, relative to DMSO (FIG. 26)", "result": "small increase"}, {"measurement": "effect of zVAD-FMK on induced Caspase 3/7 activity", "setting": "[5]; zVAD-FMK 20 μM (FIG. 26)", "result": "inhibited by zVAD-FMK treatment"}, {"measurement": "cell death (Annexin V/PI)", "setting": "[6]; Compound 1, Comparator 1, 2 5 μM, Comparator 4 10 μM", "result": "~40", "unit": "%"}, {"measurement": "effect of zVAD-FMK on cell death, Annexin V/PI staining", "setting": "[6]; zVAD-FMK 20 μM (FIG. 24)", "result": "unaffected by zVAD-FMK treatment"}, {"measurement": "cell death (Annexin V/PI), compound alone", "setting": "[7]", "result": "induced cell death"}, {"measurement": "effect of bafilomycin A1 cotreatment on cell death (Annexin V/PI)", "setting": "[7]", "result": "increased"}, {"measurement": "cell death (MTT cell viability)", "setting": "[8]", "result": "increased cell death relative to DMSO"}, {"measurement": "number of apoptotic cells (Annexin V/PI)", "setting": "[9]", "result": "increased numbers of apoptotic cells"}, {"measurement": "raw data ratio 600 nm/460 nm, Data 1", "setting": "[10]; Conc. 0.0005 μM", "result": 0.07557}, {"measurement": "raw data ratio 600 nm/460 nm, Data 2", "setting": "[10]; Conc. 0.0005 μM", "result": 0.0761}, {"measurement": "raw data ratio 600 nm/460 nm, Data 1", "setting": "[10]; Conc. 0.0015 μM", "result": 0.06908}, {"measurement": "raw data ratio 600 nm/460 nm, Data 2", "setting": "[10]; Conc. 0.0015 μM", "result": 0.06919}, {"measurement": "raw data ratio 600 nm/460 nm, Data 1", "setting": "[10]; Conc. 0.0046 μM", "result": 0.05883}, {"measurement": "raw data ratio 600 nm/460 nm, Data 2", "setting": "[10]; Conc. 0.0046 μM", "result": 0.05984}, {"measurement": "raw data ratio 600 nm/460 nm, Data 1", "setting": "[10]; Conc. 0.0137 μM", "result": 0.04626}, {"measurement": "raw data ratio 600 nm/460 nm, Data 2", "setting": "[10]; Conc. 0.0137 μM", "result": 0.04683}, {"measurement": "raw data ratio 600 nm/460 nm, Data 1", "setting": "[10]; Conc. 0.0412 μM", "result": 0.04036}, {"measurement": "raw data ratio 600 nm/460 nm, Data 2", "setting": "[10]; Conc. 0.0412 μM", "result": 0.04048}, {"measurement": "raw data ratio 600 nm/460 nm, Data 1", "setting": "[10]; Conc. 0.1235 μM", "result": 0.02963}, {"measurement": "raw data ratio 600 nm/460 nm, Data 2", "setting": "[10]; Conc. 0.1235 μM", "result": 0.03005}, {"measurement": "raw data ratio 600 nm/460 nm, Data 1", "setting": "[10]; Conc. 0.3704 μM", "result": 0.02837}, {"measurement": "raw data ratio 600 nm/460 nm, Data 2", "setting": "[10]; Conc. 0.3704 μM", "result": 0.02942}, {"measurement": "raw data ratio 600 nm/460 nm, Data 1", "setting": "[10]; Conc. 1.1111 μM", "result": 0.02836}, {"measurement": "raw data ratio 600 nm/460 nm, Data 2", "setting": "[10]; Conc. 1.1111 μM", "result": 0.02899}, {"measurement": "raw data ratio 600 nm/460 nm, Data 1", "setting": "[10]; Conc. 3.3333 μM", "result": 0.02996}, {"measurement": "raw data ratio 600 nm/460 nm, Data 2", "setting": "[10]; Conc. 3.3333 μM", "result": 0.02908}, {"measurement": "raw data ratio 600 nm/460 nm, Data 1", "setting": "[10]; Conc. 10.0000 μM", "result": 0.02733}, {"measurement": "raw data ratio 600 nm/460 nm, Data 2", "setting": "[10]; Conc. 10.0000 μM", "result": 0.02831}, {"measurement": "CETSA", "setting": "[11]", "result": "NEG"}]}]}
